Tests used:
[1] = tested on: Human myeloid monocytic leukemia cell (MV-4-11); experiment: Tumor cell proliferation inhibition (CellTiter-Meiluncell luminescent cell viability assay); details: MV4-11, 96 h; for inhibition at 0.01 µM: read-out: Inhibition Rate at 10 nM (%); for inhibition at 0.5 µM: read-out: Inhibition Rate at 500 nM (%)
Protocol: The tumor cells used herein were cultured in a cell culture medium listed in table 2 at 37°C in an incubator with 5% CO2. Prior to experimentation, all cell lines used were correctly identified by STR profiling, and tested negative for mycoplasma contamination using a mycoplasma detection kit through routine screenings.
The IC50 values of the compounds of the present disclosure (including the compounds in Table 1 and Examples) were determined using the CellTiter-Meiluncell Luminescent Cell Viability Assay Kit from Dalian Meilun Biotech Co., Ltd. The detailed procedure is as follows: Tumor cells were seeded in 96-well cell culture plates at the densities specified in Table 3. On the following day, the test compounds of the present disclosure were subjected to serial dilution. The dilution can be performed according to one of the following two methods: • (1) The first dilution method: The test compounds of the present disclosure (including the compounds in Table 1 and Examples) were subjected to 5-fold serial dilutions starting from a highest concentration of 2000 µM, resulting in a total of 9 concentrations from high to low (2000, 400, 80, 16, 3.2, 0.64, 0.128, 0.0256, 0.00512 µM). Subsequently, 0.5 µL of the test compound dilution was transferred into the 96-well plate containing the cells, with each well containing 100 µL of cell culture medium. […] Into the 96-well plate, the diluted test compounds and corresponding detection reagents were added, resulting in final test compound concentrations of 500 nM and 10 nM, respectively. The experimental procedure is described below using the diluted 2 µM test compound as an example.
0.5 µL of the aforementioned diluted compound of the present disclosure (including the compounds in Table 1 and Examples) was added to the seeded cells in 100 µL of medium, yielding a final test compound concentration of 10 nM. After the cells were treated with the compounds of the present disclosure for a specified period, the cell viability assay reagent was added to the culture medium according to the kit's instructions to determine cell viability. […] All controls were treated using the same procedure as the compounds of the present disclosure. The growth inhibition curves for the compounds of the present disclosure were plotted using Prism GraphPad software, and the IC50 values were calculated therefrom.

[2] = target: T1, IKZF3 (Homo sapiens, UniProt Q96SW2+Q9UKT9); experiment: Western blot, degradation of substrate protein in hPBMCs; type: cell-based
T1 construct: effects of the compounds of the present disclosure on the expression of target proteins in cells; endogenous in cells; host or cells: human PBMCs (Milecell Biotechnologies)
T1 sequence (Q9UKT9 whole entry): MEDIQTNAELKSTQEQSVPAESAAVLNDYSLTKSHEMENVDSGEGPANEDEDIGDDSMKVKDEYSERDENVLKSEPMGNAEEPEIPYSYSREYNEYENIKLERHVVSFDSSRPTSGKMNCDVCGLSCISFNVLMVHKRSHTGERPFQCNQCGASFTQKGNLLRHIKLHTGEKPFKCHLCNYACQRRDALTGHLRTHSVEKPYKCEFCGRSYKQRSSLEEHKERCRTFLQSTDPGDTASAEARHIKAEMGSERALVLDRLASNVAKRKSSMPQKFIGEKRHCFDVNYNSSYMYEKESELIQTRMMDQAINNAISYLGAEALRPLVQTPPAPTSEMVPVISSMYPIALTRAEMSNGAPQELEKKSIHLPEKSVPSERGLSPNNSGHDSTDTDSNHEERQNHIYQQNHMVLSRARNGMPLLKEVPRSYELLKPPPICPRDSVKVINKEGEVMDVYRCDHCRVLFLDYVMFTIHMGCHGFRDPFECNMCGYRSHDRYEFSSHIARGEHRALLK
T1 sequence (Q96SW2 whole entry): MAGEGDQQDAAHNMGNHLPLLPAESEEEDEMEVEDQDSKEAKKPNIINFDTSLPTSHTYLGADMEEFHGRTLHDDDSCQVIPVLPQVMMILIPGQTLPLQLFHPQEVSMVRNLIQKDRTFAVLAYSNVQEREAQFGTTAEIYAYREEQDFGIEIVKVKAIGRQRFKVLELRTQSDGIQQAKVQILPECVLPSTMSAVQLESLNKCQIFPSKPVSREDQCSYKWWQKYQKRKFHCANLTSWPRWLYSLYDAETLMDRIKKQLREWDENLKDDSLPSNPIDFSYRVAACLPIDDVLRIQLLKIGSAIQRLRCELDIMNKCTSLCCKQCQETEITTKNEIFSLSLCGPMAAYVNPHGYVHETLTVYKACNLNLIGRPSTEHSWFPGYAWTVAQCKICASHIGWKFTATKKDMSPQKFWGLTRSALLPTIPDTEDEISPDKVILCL
T1 sequence (Q16531 whole entry partner): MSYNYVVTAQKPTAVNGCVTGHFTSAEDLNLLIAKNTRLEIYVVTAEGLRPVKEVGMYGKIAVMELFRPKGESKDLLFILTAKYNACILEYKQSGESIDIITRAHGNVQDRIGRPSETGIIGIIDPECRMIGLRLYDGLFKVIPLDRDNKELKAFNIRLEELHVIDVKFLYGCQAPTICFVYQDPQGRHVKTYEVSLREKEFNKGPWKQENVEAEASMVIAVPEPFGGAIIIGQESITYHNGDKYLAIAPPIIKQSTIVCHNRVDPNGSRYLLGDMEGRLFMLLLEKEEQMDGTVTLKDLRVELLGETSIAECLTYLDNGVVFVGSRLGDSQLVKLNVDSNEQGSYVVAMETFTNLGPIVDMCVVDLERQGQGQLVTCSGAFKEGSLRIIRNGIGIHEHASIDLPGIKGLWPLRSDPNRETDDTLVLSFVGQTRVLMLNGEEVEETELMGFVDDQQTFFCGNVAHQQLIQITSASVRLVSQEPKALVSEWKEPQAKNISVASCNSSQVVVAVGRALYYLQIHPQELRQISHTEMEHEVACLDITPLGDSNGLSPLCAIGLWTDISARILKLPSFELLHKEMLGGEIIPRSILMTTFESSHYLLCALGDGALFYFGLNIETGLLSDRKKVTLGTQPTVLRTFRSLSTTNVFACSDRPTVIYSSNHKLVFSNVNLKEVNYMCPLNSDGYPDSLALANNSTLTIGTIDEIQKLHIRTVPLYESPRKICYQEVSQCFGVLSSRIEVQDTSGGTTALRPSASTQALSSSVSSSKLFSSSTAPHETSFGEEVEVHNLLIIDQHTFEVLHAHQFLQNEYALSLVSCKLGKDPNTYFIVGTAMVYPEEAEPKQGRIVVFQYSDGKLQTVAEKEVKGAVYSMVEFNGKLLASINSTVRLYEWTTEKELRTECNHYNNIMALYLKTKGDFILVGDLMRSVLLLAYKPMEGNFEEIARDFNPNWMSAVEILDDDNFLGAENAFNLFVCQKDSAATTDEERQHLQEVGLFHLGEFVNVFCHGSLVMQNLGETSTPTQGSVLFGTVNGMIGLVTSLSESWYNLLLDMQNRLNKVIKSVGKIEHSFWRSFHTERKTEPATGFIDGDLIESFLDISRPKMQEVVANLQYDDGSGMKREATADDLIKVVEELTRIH

[3] = target: T2, IKZF2 (Homo sapiens, UniProt Q96SW2+Q9UKS7); experiment: as above; type: cell-based
T2 construct: effects of the compounds of the present disclosure on the expression of target proteins in cells; endogenous in cells; host or cells: human PBMCs (Milecell Biotechnologies)
T2 sequence (Q9UKS7 whole entry): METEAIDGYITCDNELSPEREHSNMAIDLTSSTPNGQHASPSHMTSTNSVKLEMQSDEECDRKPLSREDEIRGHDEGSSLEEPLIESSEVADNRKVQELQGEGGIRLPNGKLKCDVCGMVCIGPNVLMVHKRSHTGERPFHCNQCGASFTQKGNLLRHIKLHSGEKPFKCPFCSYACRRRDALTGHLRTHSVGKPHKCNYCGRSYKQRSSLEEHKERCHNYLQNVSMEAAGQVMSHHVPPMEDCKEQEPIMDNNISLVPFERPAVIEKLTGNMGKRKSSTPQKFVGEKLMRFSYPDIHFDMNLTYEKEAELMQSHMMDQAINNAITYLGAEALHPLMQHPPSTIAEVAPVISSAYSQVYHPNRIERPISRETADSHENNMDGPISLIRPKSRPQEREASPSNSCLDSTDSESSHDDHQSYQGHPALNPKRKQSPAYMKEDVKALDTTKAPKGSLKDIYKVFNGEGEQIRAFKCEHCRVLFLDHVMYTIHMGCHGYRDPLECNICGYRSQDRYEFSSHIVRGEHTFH
T2 sequence (Q96SW2 whole entry): as the sequence (Q96SW2 whole entry) above
T2 sequence (Q16531 whole entry partner): as the sequence (Q16531 whole entry partner) above

[4] = target: T3, CK1α (Homo sapiens, UniProt P48729+Q96SW2); experiment: as above; type: cell-based
T3 construct: effects of the compounds of the present disclosure on the expression of target proteins in cells; endogenous in cells; host or cells: human PBMCs (Milecell Biotechnologies)
T3 sequence (P48729 whole entry): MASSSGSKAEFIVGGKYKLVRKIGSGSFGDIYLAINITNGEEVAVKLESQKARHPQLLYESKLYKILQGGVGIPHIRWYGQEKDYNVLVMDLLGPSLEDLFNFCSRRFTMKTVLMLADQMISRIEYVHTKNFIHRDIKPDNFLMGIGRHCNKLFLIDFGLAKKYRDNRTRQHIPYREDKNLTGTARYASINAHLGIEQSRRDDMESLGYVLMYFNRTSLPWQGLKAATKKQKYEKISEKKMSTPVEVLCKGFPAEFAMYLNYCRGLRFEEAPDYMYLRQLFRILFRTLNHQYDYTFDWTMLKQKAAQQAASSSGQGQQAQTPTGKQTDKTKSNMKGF
T3 sequence (Q96SW2 whole entry): as the sequence (Q96SW2 whole entry) above
T3 sequence (Q16531 whole entry partner): as the sequence (Q16531 whole entry partner) above

[5] = target: T4, IKZF1 (Homo sapiens, UniProt Q13422+Q96SW2); experiment: as above; type: cell-based
T4 construct: effects of the compounds of the present disclosure on the expression of target proteins in cells; endogenous in cells; host or cells: human PBMCs (Milecell Biotechnologies)
T4 sequence (Q13422 whole entry): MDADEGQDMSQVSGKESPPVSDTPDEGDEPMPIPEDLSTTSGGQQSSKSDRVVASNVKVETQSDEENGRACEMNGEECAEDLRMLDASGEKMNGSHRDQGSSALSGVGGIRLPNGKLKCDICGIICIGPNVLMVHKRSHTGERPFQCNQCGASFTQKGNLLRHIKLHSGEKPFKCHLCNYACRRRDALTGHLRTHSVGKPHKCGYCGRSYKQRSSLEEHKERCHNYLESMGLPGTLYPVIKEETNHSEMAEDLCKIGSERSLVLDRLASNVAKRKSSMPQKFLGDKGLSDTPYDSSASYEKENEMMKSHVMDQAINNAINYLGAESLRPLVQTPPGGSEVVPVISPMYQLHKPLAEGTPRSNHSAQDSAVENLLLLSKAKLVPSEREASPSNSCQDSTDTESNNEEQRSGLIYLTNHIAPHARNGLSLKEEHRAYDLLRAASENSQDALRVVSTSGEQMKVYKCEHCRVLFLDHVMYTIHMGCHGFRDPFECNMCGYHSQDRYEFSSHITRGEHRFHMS
T4 sequence (Q96SW2 whole entry): as the sequence (Q96SW2 whole entry) above
T4 sequence (Q16531 whole entry partner): as the sequence (Q16531 whole entry partner) above

[6] = target: T5, WEE1 (Homo sapiens, UniProt P30291+Q96SW2); experiment: as above; type: cell-based
T5 construct: effects of the compounds of the present disclosure on the expression of target proteins in cells; endogenous in cells; host or cells: human PBMCs (Milecell Biotechnologies)
T5 sequence (P30291 whole entry): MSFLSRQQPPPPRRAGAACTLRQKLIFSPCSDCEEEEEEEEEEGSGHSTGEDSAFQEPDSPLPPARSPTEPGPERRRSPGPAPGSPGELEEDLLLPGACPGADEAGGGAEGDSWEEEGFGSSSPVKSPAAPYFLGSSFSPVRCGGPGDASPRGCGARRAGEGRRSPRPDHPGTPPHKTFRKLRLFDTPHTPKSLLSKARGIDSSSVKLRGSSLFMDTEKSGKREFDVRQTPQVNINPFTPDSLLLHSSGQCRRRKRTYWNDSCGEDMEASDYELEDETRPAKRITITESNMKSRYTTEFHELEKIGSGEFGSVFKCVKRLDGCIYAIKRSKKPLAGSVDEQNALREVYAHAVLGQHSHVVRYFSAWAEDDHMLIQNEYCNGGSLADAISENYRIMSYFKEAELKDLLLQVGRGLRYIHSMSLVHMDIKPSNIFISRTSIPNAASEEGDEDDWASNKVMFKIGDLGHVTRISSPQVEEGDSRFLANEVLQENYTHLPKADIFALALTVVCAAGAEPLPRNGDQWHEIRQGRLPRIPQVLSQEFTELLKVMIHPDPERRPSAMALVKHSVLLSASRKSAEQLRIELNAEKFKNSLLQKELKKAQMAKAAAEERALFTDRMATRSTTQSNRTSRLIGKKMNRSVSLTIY
T5 sequence (Q96SW2 whole entry): as the sequence (Q96SW2 whole entry) above
T5 sequence (Q16531 whole entry partner): as the sequence (Q16531 whole entry partner) above

[7] = tested on: Human acute T lymphocytic leukemia cell (Molt4); experiment: Tumor cell proliferation inhibition (CellTiter-Meiluncell luminescent cell viability assay); details: MOLT-4, 96 h; for inhibition at 0.01 µM: read-out: Inhibition Rate at 10 nM (%); for inhibition at 0.5 µM: read-out: Inhibition Rate at 500 nM (%)
[8] = tested on: GSPT1; experiment: Western blot, degradation of substrate protein in hPBMCs; type: cell-based, Human
[9] = target: T6, human Cereblon WT GST-tagged protein (Homo sapiens, UniProt Q96SW2); experiment: CRBN-binding affinity, HTRF (CEREBLON BINDING kit); details: for inhibition at 0.5 µM: read-out: Inhibition Rate at 0.5 µM (%); for inhibition at 2 µM: read-out: Inhibition Rate at 2 µM (%)
T6 construct: purchased CISBIO 64BDCRBNPEH
T6 sequence (Q96SW2 whole entry): as the sequence (Q96SW2 whole entry) above

[10] = tested on: Human multiple myeloma cell (MM.1S); experiment: Tumor cell proliferation inhibition (CellTiter-Meiluncell luminescent cell viability assay); details: for inhibition at 0.01 µM / inhibition at 0.5 µM: Homo sapiens, MM1.S, 96 h; for inhibition at 0.01 µM: read-out: Inhibition Rate at 10 nM (%); for inhibition at 0.5 µM: read-out: Inhibition Rate at 500 nM (%)
[11] = Western blot, 24 hours of compound treatment, compounds tested at 50 nM and 500 nM (concentration for the table not stated)
[12] = 24 hours treatment, compounds at 50 nM and 500 nM (concentration behind the class not stated)

Row | inhibition at 0.5 µM [9] | inhibition at 2 µM [9] | Compound | inhibition at 0.01 µM [1] | inhibition at 0.5 µM [1] | IKZF3 substrate protein remaining % [2, 11] | IKZF2 substrate protein remaining % [3, 11] | CK1α substrate protein remaining % [4, 11] | IKZF 1 substrate protein remaining % [5, 11] | Wee1 substrate protein remaining % [6, 11] | inhibition at 0.01 µM [7] | inhibition at 0.5 µM [7] | GSPT1 substrate protein remaining % [8, 11] | inhibition at 0.01 µM [10] | IKZF3 substrate protein remaining % [2, 12] | IKZF2 substrate protein remaining % [3, 12] | CK1α substrate protein remaining % [4, 12] | IKZF 1 substrate protein remaining % [5, 12] | Wee1 substrate protein remaining % [6, 12] | GSPT1 substrate protein remaining % [8, 12] | inhibition at 0.5 µM [10] | also measured
1 | 60 to 80% | 80 to 100% | O=C1CCC(N2Cc3cc(CN4CCC(c5nccc(Cl)c5Cl)CC4)ccc3C2=S)C(=O)N1 (stereo not shown) [GT-08488, 3-(5-((4-(3,4-dichloropyridin-2-yl)piperidin-1-yl)methyl)-1-thioxoisoindolin-2-yl)piperidine-2,6-dione] | 18 to 25% | 80 to 100% | B (80%< substrate protein remaining %≤ 100%) | B (80%< substrate protein remaining %≤ 100%) | B (80%< substrate protein remaining %≤ 100%) | B (80%< substrate protein remaining %≤ 100%) | B (80%< substrate protein remaining %≤ 100%) | 10 to 20% | 70 to 80% | A (0% ≤ substrate protein remaining % ≤ 80%) | 10 to 20% |  |  |  |  |  |  |  | Inhibition Rate at 500 nM (%) ([10]; MM.1S, 500 nM, 96 hours): la8
2 | 60 to 80% | 80 to 100% | Cc1cc(N2CCN(Cc3ccc4c(c3)CN(C3CCC(=O)NC3=O)C4=S)CC2)cs1 (stereo not shown) [GT-08170, 3-(5-((4-(5-methylthiophen-3-yl)piperazin-1-yl)methyl)-1-thioxoisoindolin-2-yl)piperidine-2,6-dione] | 25 to 30% | 60 to 80% |  |  |  |  |  | 5 to 10% | 60 to 70% |  |  | A (0% ≤ substrate protein remaining % ≤ 80%) | A (0% ≤ substrate protein remaining % ≤ 80%) | A (0% ≤ substrate protein remaining % ≤ 80%) | B (80%< substrate protein remaining %≤ 100%) | B (80%< substrate protein remaining %≤ 100%) | A (0% ≤ substrate protein remaining % ≤ 80%) |  | 
3 | 30 to 40% | 60 to 80% | O=C1CCC(N2Cc3cc(CN4CCN(c5ccc(Cl)c(Cl)c5)CC4)ccc3C2=S)C(=O)N1 (stereo not shown) [GT-08612, 3-(5-((4-(3,4-dichlorophenyl)piperazin-1-yl)methyl)-1-thioxoisoindolin-2-yl)piperidine-2,6-dione] |  |  | B (80%< substrate protein remaining %≤ 100%) | B (80%< substrate protein remaining %≤ 100%) | B (80%< substrate protein remaining %≤ 100%) | B (80%< substrate protein remaining %≤ 100%) | B (80%< substrate protein remaining %≤ 100%) | 10 to 20% | 50 to 60% | A (0% ≤ substrate protein remaining % ≤ 80%) |  |  |  |  |  |  |  |  | 

Row | Compound | inhibition at 0.5 µM [9] | inhibition at 2 µM [9] | inhibition at 0.01 µM [1] | inhibition at 0.5 µM [1] | IKZF3 substrate protein remaining % [2, 11] | IKZF2 substrate protein remaining % [3, 11] | CK1α substrate protein remaining % [4, 11] | IKZF 1 substrate protein remaining % [5, 11] | Wee1 substrate protein remaining % [6, 11] | inhibition at 0.01 µM [7] | inhibition at 0.5 µM [7] | GSPT1 substrate protein remaining % [8, 11] | inhibition at 0.01 µM [10] | IKZF3 substrate protein remaining % [2, 12] | IKZF2 substrate protein remaining % [3, 12] | CK1α substrate protein remaining % [4, 12] | IKZF 1 substrate protein remaining % [5, 12] | Wee1 substrate protein remaining % [6, 12] | GSPT1 substrate protein remaining % [8, 12] | inhibition at 0.5 µM [10] | also measured
4 | O=C1CCC(N2Cc3cc(CN4CCC(c5n[nH]c6cc(F)ccc56)CC4)ccc3C2=S)C(=O)N1 (stereo not shown) [GT-09269, 3-(5-((4-(6-fluoro-1H-indazol-3-yl)piperidin-1-yl)methyl)-1-thioxoisoindolin-2-yl)piperidine-2,6-dione] | 80 to 100% | 80 to 100% | 10 to 18% | 80 to 100% |  |  |  |  |  | 30 to 40% | 80 to 100% |  | 5 to 10% | B (80%< substrate protein remaining %≤ 100%) | B (80%< substrate protein remaining %≤ 100%) | B (80%< substrate protein remaining %≤ 100%) | B (80%< substrate protein remaining %≤ 100%) | B (80%< substrate protein remaining %≤ 100%) | A (0% ≤ substrate protein remaining % ≤ 80%) | 80 to 100% | 
5 | O=C1CCC(N2Cc3cc(CN4C5CCC4CN(c4cccc(Cl)c4Cl)C5)ccc3C2=S)C(=O)N1 (stereo not shown) [GT-08480, 3-(5-((3-(2,3-dichlorophenyl)-3,8-diazabicyclo[3.2.1]octan-8-yl)methyl)-1-thioxoisoindolin-2-yl)piperidine-2,6-dione] | 40 to 53% | 80 to 100% | 25 to 30% | 80 to 100% | B (80%< substrate protein remaining %≤ 100%) | B (80%< substrate protein remaining %≤ 100%) | B (80%< substrate protein remaining %≤ 100%) | B (80%< substrate protein remaining %≤ 100%) | B (80%< substrate protein remaining %≤ 100%) | 0 to 5% | 80 to 100% | A (0% ≤ substrate protein remaining % ≤ 80%) | 20 to 30% |  |  |  |  |  |  | 80 to 100% | 

Source: patent EP4745135A1 (Gluetacs Therapeutics (Shanghai) Co., Ltd., priority 2023, dated 2025)
